From article PMC5485657 (The Journal of Venomous Animals and Toxins Including …, 2017)
Ends that are not written are not given here.

Columns and labels:
paw edema = system: paw edema; set-up: method as in PMID 15688321; details: previous study, similar approach; cited from earlier work
BK-induced rat paw edema = test: Bradykinin-potentiating activity in vivo (rat paw edema); set-up: species or system Male Wistar rats; details: intraplantar BK 40 ng/mL (2 ng in 50 μL saline)
Method: Male Wistar (200 g-250 g) rats, bred at the Nuclear and Energy Research Institute (IPEN), São Paulo, SP, Brazil were used for the in vivo assays. The animals had access to food and water ad libitum, and were kept under a 12 h-light/dark cycle. Procedures involving animals and their care were in accordance with the guidelines for the use of animals on biomedical research and were approved by the Animal Ethics Committee (protocol 171/16) of IPEN.
Edema was induced by intraplantar injection of 2 ng of BK diluted in 50 μL saline into the left hind paw, which was measured every 5 min for 40 min by a plethysmograph (H. Basile, Italy). The right paw was injected with 50 μL […] saline (NaCl 0.9% w/v). In parallel, a group was injected with the synthetic potentiating peptide (40 ng/mL) in the left paw 10 min before the injection of BK, in order to evaluate the potentiation of BK. In both cases, the volume of the right paw was subtracted from that of volume of the left paw, to give net edema, expressed in μL.
One-way analysis of variance (ANOVA) was performed. The significance level was considered as p < 0.05.

QWAQWPRPQIPP [BPP9a, B. jararaca BPP9a]
paw edema (in words) (paw edema): intense and fast paw edema

Bradykinin (RPPGFSPFR; also: acetate salt; UniProt P01042 381-389, looked up) [BK]
time at which induced edema was detectable (BK-induced rat paw edema; plethysmograph): 5 min | time course of edema (in words) (BK-induced rat paw edema; plethysmograph every 5 min for 40 min): declined at a constant rate over the next 40 min
